Read-outs that look alike come from different tables or passages of the source.
Key:
[1] = test system: L. amazonensis serine proteases; test: Enzymatic assay on promastigote lysate with substrate ABZ-V-F-R-S-L-K-Q EDDnp; assay type: biochemical, Leishmania amazonensis; settings: first 10 min; for enzymatic activity of L. amazonensis serine proteases: 2.5 µM inhibitor
Experimental: The enzymatic assay was conducted in a final volume of 200 µL per well, containing 1 µM of substrate, supernatant of lysate of 3.7 × 10^6 parasites, 2.5 µM of inhibitors (PF-429242 and TPCK) or 3 µM of E-64 in Tris-buffered pH 8. Substrate ABZ-V-F-R-S-L-K-Q EDDnp was used, which was provided by Dr. Luiz Juliano Neto from the Department of Biophysics of UNIFESP-EPM and is described in Alves, L.C. et al.. The lysate was prepared with promastigotes in stationary phase of growth, washed three times with PBS pH 7.2, and in the last wash it was resuspended in Tris-buffered pH 8 with 1% NP40. The parasites were submitted to five rapid freeze–thaw cycles in liquid nitrogen. The lysate was centrifuged at 20,000g for 10 min at […]. The supernatant was stored at −20 °C until use. The read was carried out using the spectrofluorimeter SoftMax M3 with excitation/emission of 320/420 nm.

Cytotoxicity assay (MTT) = assay type: cell-based, BALB/c mice; settings: BALB/c, mouse
Experimental: To determinate the toxicity of the inhibitors on mammalian cells, peritoneal macrophages from BALB/c mice, obtained by peritoneal lavage, in concentration of 2 × 10^6 macrophages/mL, were adhered in 96-well culture plates overnight at 37 °C with 5% CO2. The inhibitors were then added in different concentrations and incubated for 72 h at 37 °C and 5% CO2. Cell viability was also assessed by the MTT method. Cytotoxic concentration of 50% of macrophages (CC50) values were calculated using GraPadPrism 8 software. Three independent experiments in triplicate were performed.

[2] = test system: Leishmania amazonensis-WT promastigotes; test: Antipromastigote assay (MTT); assay type: cell-based; settings: 72 h of incubation; interval in brackets; read-out: Antileishmanial effect in Leishmania amazonensis IC50 Promastigote
Experimental: Leishmania amazonensis–WT promastigotes, in the logarithmic phase of growth, were transferred to 96-well culture plates (final concentration 2 × 10^6 cells/mL) and exposed to different concentrations of inhbitors during 72 h at 25 °C. The cell viability was evaluated by the 3-(4,5-dimethylthiazol-2-yl)-2,5 diphenyltetrazolium bromide (MTT) method (obtained from Sigma-Aldrich). The inhibitory concentration of 50% of parasite growth (IC50) values were calculated using GraphPad Prism 8 software […]. Three independent experiments in triplicate were performed. Amphotericin B (Cristália, São Paulo, SP, Brazil) was used as a reference drug.

[3] = test system: Leishmania amazonensis-RFP promastigotes; test: Viability of promastigotes after 1 h of treatment with inhibitors; assay type: cell-based; settings: 1 h treatment, washed; for viability of promastigotes after 1 h of treatment, compared with the control: 0 h, 24 h, 48 h and 72 h of incubation
Experimental: Leishmania amazonensis-RFP promastigotes were treated with different concentrations of inhibitors during 1 h at 25 °C and were washed with PBS. Then, these cells had their viability determined by fluorescence analysis using a spectrofluorimeter (time = 0 h) and were also reincubated in complete RPMI medium for subsequent analysis of cell viability after 24 h, 48 h, and 72 h (times = 24 h, 48 h, and 72 h) by fluorescence analysis.

[4] = test system: L. amazonensis in peritoneal macrophages; test: Promastigote pretreatment and infection of peritoneal macrophages; assay type: cell-based, Leishmania amazonensis; settings: for conversion of promastigotes into amastigotes: pretreated parasites (PF-429242 3.2 µM, TPCK 30 µM); for number of intracellular amastigotes (Giemsa, Supplementary Fig. 1): pretreatment with PF-429242 3.2 µM or TPCK 30 µM; for entry of promastigotes into macrophages: promastigotes pretreated 1 h, 0 h after 4 h interaction
Experimental: (§1) Leishmania amazonensis-RFP promastigotes were pretreated with different concentrations of inhbitors during 1 h at 25 °C. The cells were washed with PBS and used to infect peritoneal macrophages from BALB/c mice (10:1 ratio), not pretreated or pretreated with 0.5 ng/mL IFN-γ overnight, in 24-well plates. After 4 h of interaction, the plates were washed with PBS and (1) scraped to remove attached cells and read using a spectrofluorimeter (time = 0 h) or (2) incubated at 33 °C with 5% CO2 for 24 h, 48 h, and 72 h for later scraping and reading (times = 24 h, 48 h, and 72 h). Three experiments were performed, each one with three replicates.
The same experiment was repeated, but using 13 mm glass coverslips in 24-well plates. The fixation with ethanol and staining with Giemsa were performed. Subsequently, the slides were examined in an optical microscope (Olympus BX53, Shinjuku, Tokyo, Japan) and photographed (Olympus DP73, Shinjuku, Tokyo, Japan).

[5] = test system: L. amazonensis in peritoneal macrophages prestimulated with IFN-γ; test: Promastigote pretreatment and infection of macrophages prestimulated with IFN-γ; assay type: cell-based, Leishmania amazonensis; settings: macrophages prestimulated with 0.5 ng/mL IFN-γ overnight; promastigotes pretreated 1 h
Experimental: as §1

[6] = test system: NO production by host macrophages; test: Determination of nitric oxide (NO) levels (Griess method); assay type: cell-based, BALB/c mice; settings: supernatant of macrophages infected with promastigotes pretreated for 1 h
Experimental: Supernatant from cultures of L. amazonensis-infected macrophages, in which promastigotes were pretreated or not with PF-429242 or TPCK, was collected, and NO levels were determined by the Griess method. NO levels were determined in aliquots of 50 µL of the supernatant, to which 50 µL of the Griess reagent were added (Griess Reagent: 1% sulfanilamide in 2.5% of H3PO4 + 0.1% N-1-diidrocloride naftiletilenodiamine in 2.5% H3PO4), in a 96-well microplate. Nitrite content was quantified by comparison with a sodium nitrite standard curve. The absorbance was measured at 540 nm using a spectrophotometer (Multiskan EX, Thermo Electron Corporation, Vantaa, Finland). The assays were carried out in duplicate and three independent experiments were realized. Macrophages prestimulated with 0.5 ng/mL IFN-γ overnight and infected with L. amazonensis promastigotes without pretreatment were used as positive controls.

[7] = test system: peritoneal macrophages from BALB/c mice; parameters: method as in PMID 35678670, PMID 33584607, PMID 35890269; settings: 72 h of incubation; previously published data (*); cited from earlier work
[8] = test system: Leishmania amazonensis-WT promastigotes; parameters: method as in PMID 35678670, PMID 33584607, PMID 35890269; settings: 72 h of incubation; previously published data (*); read-out: Antileishmanial effect in Leishmania amazonensis IC50 Promastigote; cited from earlier work
[9] = test system: L. amazonensis (RFP) amastigotes; parameters: method as in PMID 35678670, PMID 33584607, PMID 35890269; settings: 72 h of incubation; previously published data (*); read-out: Antileishmanial effect in Leishmania amazonensis IC50 Amastigote; cited from earlier work
[10] = test system: L. amazonensis promastigotes and amastigotes; settings: cited from earlier work
[11] = test system: L. amazonensis (RFP) amastigotes; test: Antiamastigote assay (RFP fluorescence, infected peritoneal macrophages); assay type: cell-based; settings: Leishmania amazonensis, Peritoneal macrophage; 72 h of incubation; interval in brackets; read-out: Antileishmanial effect in Leishmania amazonensis IC50 Amastigote
Experimental: Peritoneal macrophages from BALB/c mice were obtained by peritoneal lavage and distributed in 24-well plates at 2 × 10^6 cells/mL in RPMI medium (Cultilab) containing 10% FBS and a 0.5% penicillin and streptomycin solution (complete RPMI). The plates were incubated for 1 h at 37 °C and 5% CO2, washed with phosphate-buffered saline (PBS), and then reincubated in complete RPMI medium overnight. The cells were washed again with PBS and infected with stationary growth phase L. amazonensis (RFP) promastigotes at a 10:1 ratio for 4 h at 33 °C. The plates were washed with PBS and the inhibitors were added at different concentrations and incubated for 72 h. After this time, each well was scraped to remove attached cells and the reading was taken with a spectrofluorimeter (FLx800, BioTek Instruments, Winooski, VT, USA) at 530 nm and 590 nm of excitation and emission, respectively. […] All assays were performed in triplicate and repeated three times. Results were calculated as the percentage of amastigote survival compared with the nontreated control group, and IC50 values were determined using GraphPad Prism 8 software.

[12] = test system: L. amazonensis promastigotes; parameters: method as in PMID 17726617; settings: 24 h, cited from earlier work
[13] = test system: L. donovani serine proteases; parameters: method as in PMID 26040107; settings: cited from earlier work
[14] = test system: L. donovani promastigotes; parameters: method as in PMID 26040107; settings: cited from earlier work; for cell viability of L. donovani promastigotes: aprotinin 1 µM, benzamidine 1 mM, after 5 h, 10 h, 15 h and 20 h of incubation
[15] = test system: L. donovani in RAW 264.7 cells; parameters: method as in PMID 26040107; settings: promastigotes pretreated 2 h; cited from earlier work
L. amazonensis = settings: mice infected with L. amazonensis; cited from earlier work

For CC(C)C[C@H](NC(=O)[C@H]1O[C@@H]1C(=O)O)C(=O)NCCCCN=C(N)N [E-64], the “enzymatic activity on serine protease substrate” value ([1]; 3 µM) was “no impact on the activity”.
For C[C@@H]1[C@H](O)[C@@H](C)/C=C/C=C/C=C/C=C/C=C/C=C/C=C/[C@H](O[C@@H]2O[C@H](C)[C@@H](O)[C@H](N)[C@@H]2O)C[C@@H]2O[C@](O)(C[C@@H](O)C[C@@H](O)[C@H](O)CC[C@@H](O)C[C@@H](O)CC(=O)O[C@H]1C)C[C@H](O)[C@H]2C(=O)O [AMB, Amphotericin B], the CC50 at 72 h (Cytotoxicity assay (MTT); peritoneal macrophages, 72 h of incubation, MTT, interval in brackets, read-out: Peritoneal macrophages CC50) was 21.8 µM and the IC50 [2] was 0.12 µM.
In the case of PF-429242, the “viability of promastigotes after 1 h of treatment, compared with the control” value (shortened to “viability … compared with the control”) [3] is reported as “not able to change cell viability”, the “conversion of promastigotes into amastigotes” value [4] is reported as “no difficulty was observed in conversion” and the “number of intracellular amastigotes (Giemsa, Supplementary Fig. 1)” value ([4]; 48 h and 72 h after infection) is reported as “reduction in the number of amastigotes”. The “entry of promastigotes into macrophages” value [4] was “did not alter the entry”, the “survival of parasites within macrophages compared with the control” value ([4]; promastigotes pretreated 1 h with 3.2 µM, 1.6 µM or 0.8 µM, 48 h and 72 h after infection) was “reduced survival” and the “intracellular survival of L. amazonensis” value [5] was “impairs the intracellular survival”. The “NO production versus control group” value [6] was “no difference in NO production”, the “enzymatic activity of L. amazonensis serine proteases” value [1] was “able to inhibit the enzymatic activity” and the CC50 [7] was 189 µM. For the same compound, the IC50 [8] was 0.83 µM, the IC50 [9] was 120 µM and the growth of promastigotes ([10]; different strains of L. amazonensis) was “inhibition of the growth of promastigotes”.
Compound N=C(N)c1ccccc1 [Benzamidine, benzamidine] has a CC50 at 72 h (Cytotoxicity assay (MTT)) of 240 µM, an IC50 [2] of over 200 µM and an IC50 [11] of over 200 µM. For the same compound, the “viability … compared with the control” value [3] was “did not change the viability”, the “entry of promastigotes into macrophages” value [4] was “did not change the entry” and the “permanence and survival of amastigotes within host cells” value ([4]; promastigotes pretreated 1 h with 200 µM or 6.25 µM, up to 72 h) was “did not alter the permanence and survival”. The “viability of L. amazonensis promastigotes” value ([12]; 1 mM, 48 h and 72 h of treatment) was “reduced the viability”, the “inhibition of the proteolytic activity” value ([13]; 1 mM) was 72% and the “cell viability of L. donovani promastigotes” value [14] was “reduced the cell viability”. For the same compound, the “intracellular survival of the parasites (ranking of inhibitors)” value [15] was “most reduced the intracellular survival”.
For Cc1ccc(S(=O)(=O)N[C@@H](Cc2ccccc2)C(=O)CCl)cc1 [TPCK, N-p-tosyl-L-phenylalanine chloromethyl ketone], the “viability of promastigotes after 1 h of treatment” value ([3]; 30 µM, after 72 h of incubation) was “slight reduction in the viability”, the “viability … compared with the control” value [3] was “not able to change cell viability” and the “conversion of promastigotes into amastigotes” value [4] was “no difficulty was observed in conversion”. For the same compound, the “number of intracellular amastigotes (Giemsa, Supplementary Fig. 1)” value ([4]; 48 h and 72 h after infection) was “reduction in the number of amastigotes”, the “entry of promastigotes into macrophages” value [4] was “did not alter the entry” and the “survival of parasites within macrophages compared with the negative control” value ([4]; promastigotes pretreated 1 h with 30 µM or 15 µM, 24 h and 48 h after infection) was “reduced survival”. For the same compound, the “survival of parasites within macrophages compared with the negative control” value ([4]; promastigotes pretreated 1 h with 30 µM, 15 µM or 7.5 µM, 72 h after infection) was “reduced survival”, the “intracellular survival of L. amazonensis” value [5] was “impairs the intracellular survival” and the “NO production versus control group” value [6] was “no difference in NO production”. The “enzymatic activity of L. amazonensis serine proteases” value [1] was “able to inhibit the enzymatic activity”, the CC50 [7] was 139 µM and the IC50 [8] was 14.6 µM. For the same compound, the IC50 [9] was 14.2 µM, the “viability of L. amazonensis promastigotes” value ([12]; 100 µM, after 4 h, 48 h and 72 h of incubation) was “reducing cell viability” and the “inhibition of the proteolytic activity” value ([13]; concentration not given) was 52%. The “cell viability of L. donovani promastigotes (reduction)” value ([14]; concentration not given) was “only did so after 15 h and 20 h”, the “growth of promastigotes and intracellular amastigotes” value ([10]; L. amazonensis) was “growth inhibition of promastigotes and intracellular amastigotes” and the “lesion size and parasite load” value (L. amazonensis) was “reduction in lesion size and parasite load”.
For aprotinin, the “inhibition of the proteolytic activity” value ([13]; 1 µM) is listed as 100%, the “cell viability of L. donovani promastigotes” value [14] is listed as “reduced the cell viability” and the “intracellular survival of the parasites (ranking of inhibitors)” value [15] is listed as “most reduced the intracellular survival”.
